Measured values taken from US20250368648A1, “MULTI-CYCLIC IRAK AND FLT3 INHIBITING COMPOUNDS AND USES THEREOF” (CHILDREN'S HOSPITAL MEDICAL CENTER, priority 2022, published 2025).

Key:
MOLM14 (D835Y) cells = assay: Combination drug screening, Cell Titer Glo, MOLM14 (D835Y) cells; conditions: MOLM14(D835Y) cells; for Excess HSA Score: sum score, listed as compound in combination with Compound 106, 48 hours;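 on all read-outs here: MOLM14 cells with FLT3 ITD plus D835Y, 500 per well in 1536-well plates, 10-point dose ranges, luminescent viability after 48 h, negative Excess HSA indicates synergy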
Experimental: Briefly, 10 nL of the compound shown below was acoustically dispensed into 1536-well white polystyrene tissue culture-treated plates with an Echo 550 acoustic liquid handler (Labcyte). Cells were then added to compound-containing plate at a density of 500-cells/well in 5 μL of medium. A 6-point or 10-point custom concentration range was used for all listed drugs. Plates were incubated for 48 hours at standard incubator conditions covered by a stainless steel gasketed lid to prevent evaporation. 48h post compound addition, 3 μL of Cell Titer Glo (Promega) were added to each well and plates were incubated at room temperature for 15 minutes with the stainless-steel lid in place. Luminescence readings were taken using a Viewlux imager (PerkinElmer) with a 2 second exposure time per plate.
A smaller concentration indicates higher potency to synergize with Venetoclax.
A smaller concentration indicates higher potency to synergize with azacitidine.
(§1) This is a cell line that has the FLT3 ITD mutation but also the FLT3 D835Y kinase domain mutation. […] Excess HSA is a measure of synergy vs. additivity or antagonism, wherein a negative Excess HSA value is indicative of synergy.

THP1 cells = assay: Combination drug screening, Cell Titer Glo, THP1 cells; conditions: THP1 cells; for Excess HSA Score: sum score, 10 × 10 dataset, 48 hours;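 on all read-outs here: luminescence read out in 1536-well plates seeded with 500 THP1 cells per well, each drug spanning a 10-point concentration range in the combination matrix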
Text: A smaller concentration indicates higher potency to synergize with Venetoclax. […] The numbers in each cell represent the % response (left) or the Delta Bliss score (right) at each given concentration combination.
A smaller concentration indicates higher potency to synergize with azacitidine. […] The numbers in each cell represent the % response (left) or the Delta Bliss score (right) at each given concentration combination.
as §1
Briefly, 10 nL of compounds were acoustically dispensed into 1536-well white polystyrene tissue culture-treated plates with an Echo 550 acoustic liquid handler (Labcyte). MOLM14 (D835Y) or THP1 cells were then added to compound-containing plates at a density of 500-cells/well in 5 μL of medium. A 10-point custom concentration range was used for all listed drugs. […] 48h post compound addition, 3 μL of Cell Titer Glo (Promega) were added to each well and plates were incubated at room temperature for 15 minutes with the stainless-steel lid in place. Luminescence readings were taken using a Viewlux imager (PerkinElmer) with a 2 second exposure time per plate.

[1] = combination therapy of CG-806 (a FLT3/BTK inhibitor) and the named additional compound, 110 × 10 dataset
[2] = combination therapy of Compound 45a and the named additional compound, 110 × 10 dataset
[3] = combination therapy of Compound 46a and the named additional compound, 110 × 10 dataset
[4] = combination therapy of Compound 47a and the named additional compound, 110 × 10 dataset
[5] = combination therapy of Compound 48a and the named additional compound, 110 × 10 dataset
[6] = combination therapy of Compound 102 and the named additional compound, 10 × 10 dataset
[7] = combination therapy of Gilteritinib (a FLT3/AXL inhibitor) and the named additional compound, 110 × 10 dataset
[8] = combination therapy of PF-06650833 (an IRAK4 selective inhibitor) and the named additional compound, 110 × 10 dataset
[9] = combination therapy of Quizartinib (a FLT3/Kit/PDGFRa inhibitor) and the named additional compound, 110 × 10 dataset
[10] = combination therapy of emavusertib (CA-4948) (a FLT3/IRAK4 inhibitor) and the named additional compound, 110 × 10 dataset
[11] = listed as compound in combination with CG-806 (a FLT3/BTK inhibitor)
[12] = listed as compound in combination with Compound 45a
[13] = listed as compound in combination with Compound 46a
[14] = listed as compound in combination with Compound 47a
[15] = listed as compound in combination with Compound 48a
[16] = listed as compound in combination with Compound 102
[17] = listed as compound in combination with Compound 106
[18] = listed as compound in combination with Gilteritinib (a FLT3/AXL inhibitor)
[19] = listed as compound in combination with PF-06650833 (an IRAK4 selective inhibitor)
[20] = listed as compound in combination with Quizartinib (a FLT3/Kit/PDGFRa inhibitor)
[21] = listed as compound in combination with emavusertib (CA-4948) (a FLT3/IRAK4 inhibitor)

SMILES	Sum Excess HSA Score (MOLM14 (D835Y) cells; [1])	Sum Excess HSA Score (MOLM14 (D835Y) cells; [2])	Sum Excess HSA Score (MOLM14 (D835Y) cells; [3])	Sum Excess HSA Score (MOLM14 (D835Y) cells; [4])	Sum Excess HSA Score (MOLM14 (D835Y) cells; [5])	Sum Excess HSA Score (MOLM14 (D835Y) cells; [6])	Sum Excess HSA Score (MOLM14 (D835Y) cells; [7])	Sum Excess HSA Score (MOLM14 (D835Y) cells; [8])	Sum Excess HSA Score (MOLM14 (D835Y) cells; [9])	Sum Excess HSA Score (MOLM14 (D835Y) cells; [10])	Excess HSA Score (MOLM14 (D835Y) cells; 10 × 10 dataset)	Excess HSA Score (THP1 cells; [11])	Excess HSA Score (THP1 cells; [12])	Excess HSA Score (THP1 cells; [13])	Excess HSA Score (THP1 cells; [14])	Excess HSA Score (THP1 cells; [15])	Excess HSA Score (THP1 cells; [16])	Excess HSA Score (THP1 cells; [17])	Excess HSA Score (THP1 cells; [18])	Excess HSA Score (THP1 cells; [19])	further results
COc1cc(F)ccc1-c1cc(Nc2cc(CS(C)(=N)=O)ccn2)ncc1F (single isomer, unassigned; (+)) [(+)-BAY-1251152, BAY1251152]	1704	−157.4	−133.4976	−727.7	−215.2	−20.6	362.2497	−386	−511.9	274	−865.6	−199.4	−860.7	−263.4	−21.17	97	−265.1	−427.1	−656.6	−758.9	Comments (THP1 cells; combination with PF-06650833): Synergistic (a negative Excess HSA value is indicative of synergy); Excess HSA Score (THP1 cells; [20]): 454.7; Excess HSA Score (THP1 cells; [21]): −51.35
CC(C)[C@@H](CS(=O)(=O)C(C)C)N1C(=O)[C@@](C)(CC(=O)O)C[C@H](c2cccc(Cl)c2)[C@H]1c1ccc(Cl)cc1 [AMG-232, navtemadlin]	−536.7	−165.5	−654.7	−325.2	224.1	−197.3	−113	−1066	−1109	−373.7	−640.2	917.1	441	229.7	364.2	420.6	−171.2	394.3	24.49	−179	Excess HSA Score (THP1 cells; [20]): −91.44; Excess HSA Score (THP1 cells; [21]): 125.5
NC1(C(=O)N[C@@H](CCO)c2ccc(Cl)cc2)CCN(c2nc[nH]c3nccc2-3)CC1 [AZD-5363, capivasertib]	−2332	−239.9	637.8	−894	−939.6	−439.3	−966.8597	47.56	−1637	−850.1	−105.2	−189.8	−1027.6539	−276.8	124.8	−732.6	−198.6	−134.3	989.6	−649.7	Comments (synergistic / antagonistic) (MOLM14 (D835Y) cells; [1]): Synergistic (a negative Excess HSA value is indicative of synergy); Comments (THP1 cells; combination with Compound 48a): Synergistic (a negative Excess HSA value is indicative of synergy); Comments (THP1 cells; combination with emavusertib (CA-4948)): Synergistic (a negative Excess HSA value is indicative of synergy); Excess HSA Score (THP1 cells; [20]): 17.2569; Excess HSA Score (THP1 cells; [21]): −1144.9723
COCC1(CO)C(=O)C2CCN1CC2 (stereo not shown) [Eprenetapopt/APR-246, APR-246 (Eprenetapopt)]	−271.7	284.5	−183.2	366.1	−140.8	−55.14	647.6	−566	−652.9	504.1	−43.15	300.5	−629.2	603.9	−14.7	−33.1	171.5	268	365.9	−225.6	Excess HSA Score (THP1 cells; [20]): 437.691; Excess HSA Score (THP1 cells; [21]): 482.6
N#Cc1ccnc(N2C(=O)CC[C@H]2C(=O)N(c2cncc(F)c2)[C@H](C(=O)NC2CC(F)(F)C2)c2ccccc2Cl)c1 [Ivosidenib, ivosidenib]	−199.6	259.8	−118.7	218.5	−299.6	−713.3	347.6	−172.4	244.1367	35.12	28.0568	93.96	−296.7	−42.9834	−122.1	−0.4511	−215.7606	354.6	338	−152.4	Excess HSA Score (THP1 cells; [20]): 177.8; Excess HSA Score (THP1 cells; [21]): 285
Nc1cccc2c1CN(C1CCC(=O)NC1=O)C2=O (stereo not shown) [Lenalidomide]	141.5	784.7	12.1	868.6	405.4	59.07	527.6728	−429.8	565.7343	390.3	754.6	534	−245.1	533.2	188.9	−51.13	12.2	386.8	355	74.4868	Excess HSA Score (THP1 cells; [20]): 472.5204; Excess HSA Score (THP1 cells; [21]): 1167
CC(=O)c1c(C)c2cnc(Nc3ccc(N4CCNCC4)cn3)nc2n(C2CCCC2)c1=O [Palbociclib]	−246	−715.3	−844.8	−616.3	−583.3	−537.2	−576.9	94.98	−1120	−557.8	−252.8	−368.3	−912.2	−907.6	−166.9	−166.7	−116.5	−590.5	−826.9	−610	Comments (THP1 cells; combination with Quizartinib): Synergistic (a negative Excess HSA value is indicative of synergy); Excess HSA Score (THP1 cells; [20]): −794.7; Excess HSA Score (THP1 cells; [21]): 190.2
C[C@]12C=CC(=O)C=C1CC[C@@H]1[C@@H]2[C@@H](O)C[C@@]2(C)[C@H]1CC[C@]2(O)C(=O)CO [Prednisolone, prednisolone]	−218	−106.5	−52.71	−58.8974	−339.3	−260.2	−583.8	−431.6	213.4	−4.3456	−5.273	335.9	438.5	174.9	134.6	511.8	26.91	274.3	−110.9078	−254.8	Excess HSA Score (THP1 cells; [20]): −81.1; Excess HSA Score (THP1 cells; [21]): 70.05
